Measurements published in patent publication US12501864B2 (priority 2020, dated 2025).
Where a name gives a salt, the structure may show the parent alone.

Conditions: in vivo

SMILES: O=C1OC2(c3ccc(O)cc3Oc3cc(O)ccc32)c2ccccc21 [Fluorescein, fluorescein disodium salt]
- distribution by infection level: greater in trees with lower infection levels compared to trees with high infection levels
- distribution in fruits vs leaves: higher in olive fruits than leaves
- distribution throughout the tree: distributed evenly throughout the tree horizontally and vertically to all the sectors measured
